According to PubChem BioAssay (NCI):
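How tested: cells in 96-well plates exposed to compound for 48 hours at five concentrations. The concentration for 50% growth inhibition is given as GI50. TGI marks complete inhibition of growth.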

What was measured:
Assay in all cases: NCI anticancer screen, dose series, 48 h
786-0 renal = tested on: 786-0 renal
A498 renal = tested on: A498 renal
A549 NSCLC = tested on: A549 NSCLC
ACHN renal = tested on: ACHN renal
BT-549 breast = tested on: BT-549 breast
CAKI-1 renal = tested on: CAKI-1 renal
CCRF-CEM leukemia = tested on: CCRF-CEM leukemia
COLO 205 colon = tested on: COLO 205 colon
DU-145 prostate = tested on: DU-145 prostate
EKVX NSCLC = tested on: EKVX NSCLC
HCC-2998 colon = tested on: HCC-2998 colon
HCT-116 colon = tested on: HCT-116 colon
HCT-15 colon = tested on: HCT-15 colon
HL-60(TB) leukemia = tested on: HL-60(TB) leukemia
HOP-62 NSCLC = tested on: HOP-62 NSCLC
HOP-92 NSCLC = tested on: HOP-92 NSCLC
HS 578T breast = tested on: HS 578T breast
HT29 colon = tested on: HT29 colon
IGROV1 ovarian = tested on: IGROV1 ovarian
K-562 leukemia = tested on: K-562 leukemia
KM12 colon = tested on: KM12 colon
LOX IMVI melanoma = tested on: LOX IMVI melanoma
M14 melanoma = tested on: M14 melanoma
MALME-3M melanoma = tested on: MALME-3M melanoma
MCF7 breast = tested on: MCF7 breast
MDA-MB-231 breast = tested on: MDA-MB-231 breast
MDA-MB-435 = tested on: MDA-MB-435
MDA-MB-468 breast = tested on: MDA-MB-468 breast
MOLT-4 leukemia = tested on: MOLT-4 leukemia

Compound: CN1CCN(Cc2ccc(C(=O)Nc3cccc(Nc4ccc5c(O)cccc5n4)c3)cc2C(F)(F)F)CC1
- GI50 (786-0 renal): 2.11 µM
- TGI (786-0 renal): 4.28 µM
- GI50 (A498 renal): 17.5 µM
- TGI (A498 renal): 33.3 µM
- GI50 (A549 NSCLC): 4.5 µM
- TGI (A549 NSCLC): 20 µM
- GI50 (ACHN renal): 2.07 µM
- TGI (ACHN renal): 4.92 µM
- GI50 (BT-549 breast): 15.6 µM
- TGI (BT-549 breast): 30.2 µM
- GI50 (CAKI-1 renal): 2.13 µM
- TGI (CAKI-1 renal): 5.17 µM
- GI50 (CCRF-CEM leukemia): 2.91 µM
- TGI (CCRF-CEM leukemia): > 100 µM
- GI50 (COLO 205 colon): 1.99 µM
- TGI (COLO 205 colon): 3.94 µM
- GI50 (DU-145 prostate): 4.68 µM
- TGI (DU-145 prostate): 17.7 µM
- GI50 (EKVX NSCLC): 3.75 µM
- TGI (EKVX NSCLC): 14.1 µM
- GI50 (HCC-2998 colon): 1.89 µM
- TGI (HCC-2998 colon): 3.36 µM
- GI50 (HCT-116 colon): 2.7 µM
- TGI (HCT-116 colon): > 100 µM
- GI50 (HCT-15 colon): 1.82 µM
- TGI (HCT-15 colon): 3.54 µM
- GI50 (HL-60(TB) leukemia): 2.47 µM
- TGI (HL-60(TB) leukemia): 5.67 µM
- GI50 (HOP-62 NSCLC): 3 µM
- TGI (HOP-62 NSCLC): 8.85 µM
- GI50 (HOP-92 NSCLC): 1.32 µM
- TGI (HOP-92 NSCLC): 5.8 µM
- GI50 (HS 578T breast): 2.96 µM
- TGI (HS 578T breast): 21.8 µM
- GI50 (HT29 colon): 2.06 µM
- TGI (HT29 colon): 4.41 µM
- GI50 (IGROV1 ovarian): 4.7 µM
- TGI (IGROV1 ovarian): 17 µM
- GI50 (K-562 leukemia): 2.42 µM
- TGI (K-562 leukemia): 24.5 µM
- GI50 (KM12 colon): 2.3 µM
- TGI (KM12 colon): 5.23 µM
- GI50 (LOX IMVI melanoma): 1.65 µM
- TGI (LOX IMVI melanoma): 3.01 µM
- GI50 (M14 melanoma): 2.21 µM
- TGI (M14 melanoma): 5.67 µM
- GI50 (MALME-3M melanoma): 1.67 µM
- TGI (MALME-3M melanoma): 3.12 µM
- GI50 (MCF7 breast): 1.74 µM
- TGI (MCF7 breast): 3.41 µM
- GI50 (MDA-MB-231 breast): 1.62 µM
- TGI (MDA-MB-231 breast): 3.75 µM
- GI50 (MDA-MB-435): 1.78 µM
- TGI (MDA-MB-435): 3.78 µM
- GI50 (MDA-MB-468 breast): 1.62 µM
- TGI (MDA-MB-468 breast): 3.16 µM
- GI50 (MOLT-4 leukemia): 1.86 µM
